Test results published in article PMC12596568, “Retention of a SulP-family bicarbonate transporter in a periplasmic N2-fixing cyanobacterial endosymbiont of an open ocean diatom” (The ISME Journal, 2025).

System: RintRC_3892
Conditions: read-out: K0.5; 20 mM TES-KOH pH 8, 30-33 mM NaCl (Na+-dependent), 30°C, light; labelled compound; n = 5; actual K0.5 might be somewhat higher because of non-labelled bicarbonate

Question: How did the Km turn out when O=C(O)O [bicarbonate] was run?
Answer: ~464 µM
